Results from patent US8951938B2, “Combinatorial rosamine library to detect cell-state switching” (New York University, priority 2007, dated 2015).
Entries after “also recorded” stand apart in the source; their conditions may differ.

Key:
DNA = experiment: Analyte screening of rosamine library, fluorescence response
Protocol: (§1) The rosamine derivative compounds were screened toward 47 different analytes that include proteins, polysaccharides, nucleic acids, and metal ions. The stock solution of each dye (50 μL) in HEPES (20 mM, pH=7.4) or PBS (20 mM, pH=7.4) was prepared, and diluted with the each analyte (50 μL, 1.0 mg/mL or 200 μM) in the same buffer solution. The final dye concentration varied from 0.5 μM to 10 μM. The fluorescence intensity fold changes of each dye in the presence of analytes were calculated by comparing the fluorescence intensity at the maximum emission wavelength with/without the analyte.

RNA = experiment: as above
Protocol: as §1

## CCN(CCCN(C)C)c1ccc2c(=O)c3ccc(N)cc3oc2c1 [L, 3-Amino-6-[(3-dimethylamino-propyl)-ethyl-amino]-xanthen-9-one]
DNA
  fluorescence response to DNA among 47 analytes: selective response; also recorded: selective increase

## CC1=CC(C)(C)N(C)c2ccc3c(=O)c4ccc(N)cc4n(C)c3c21 [J]
RNA
  fluorescence response to RNA among 47 analytes: selective response; also recorded: selective increase
